Patent US8729047B2, “Compositions for inhibiting redox-sensitive GTPases” (Board of Regents, The University of Texas System, priority 2010, dated 2014)

Tests used:
HME-RhoC cells = experiment: Matrigel invasion (cell motility) assay; assay type: cell-based, human
Method: FIG. 5. Determination of cell invasiveness in the presence and absence of 6-thiopurine and/or a redox agent. The top chamber of a Transwell filter (6.5 mm with 8 μm pores, Costar; Corning, N.Y.) was coated with a 10 μL aliquot of 10 mg/mL Matrigel (BD Biosciences, Bedford Mass.), and the lower chamber of the Transwell was filled with either serum-free or serum-containing media. Sample cells (e.g., 6-TG-resistant HME-RhoC cells) were prepared to resuspend cells in a serum-free medium with 0.1% BSA at a concentration of 4×10^5 cells/mL. At this point, neither 6-thiopurine nor GSNO were added to the cells. The sample cells (0.5 mL) were added to the top chamber of a Transwell filter and were incubated for 24 h at 37° C. in a 10% CO2 incubator. The Transwell filters were fixed with methanol, stained with H&E, and cells in the serum-containing samples were counted. The number of cells that had invaded the serum-free medium-containing lower chambers was used as a control background. Results are given as percent invasion over that seen in HME-RhoC cells (100%) and represent mean and standard error values from triplicate measurements.
FIG. 11. Determination of cell invasiveness in the presence and absence of […] and/or a redox agent. […] The number of cells that had invaded the serum-free medium-containing lower chambers was used as a control background. Results are given as percent invasion over that seen in HME-RhoC cells (100%) and represent mean and standard error values from triplicate measurements.
FIG. 14. Determination of cell invasiveness in the presence and absence of thiopurines and/or redox agents. […] Western blot analysis representing the total expression of RhoC in these cells also is shown. (B) Experimental procedures for the determination of the time-dependent motility of cells using the QCM Cell Invasion Assay kit in the presence and absence of 6-TG and DETA/NO are described elsewhere herein.
The top chamber of a Transwell filter (6.5 mm with 8 μm pores, Costar; Corning, N.Y.) was coated with a 10 μL aliquot of 10 mg/mL Matrigel, and the lower chamber of the Transwell was filled with either serum-free or serum-containing media. Sample cells were prepared to resuspend cells in a serum-free medium with 0.1% BSA at a concentration of 4×10^5 cells/mL. […] The Transwell filters were fixed with methanol, stained with haematoxylin and eosin, and cells in the serum-containing samples were counted. The number of cells that had invaded the serum-free, medium-containing lower chambers was used as a control background.

RhoA [1] = target: T1, RhoA (Rattus norvegicus, UniProt P61589); experiment: RhoA expression (Western) and RhoA G-LISA activity in A7r5 cells; assay type: cell-based
T1 construct: endogenous in cells; host or cells: A7r5 cells (rat aortic vascular smooth muscle)
Method: FIG. 20. Determination of RhoA activity and MLC phosphorylation. […] Cell lysates in a buffer containing 1% NP-40, 10 mM EDTA, and 20 mM TrisHCl (pH 7.4) were centrifuged (50,000×g, 20 min) to remove solid matter. (A) The soluble cell extract was then used to perform Western blot analyses for RhoA and the MLC. This cell extract also was used for the co-IP-based ESI-MS analysis (FIG. 6). (B) A RhoA activity assay was colorimetrically determined using cell extract; the assay was performed with the RhoA G-LISA Activation Assay Kit (Cat. No. BK124) (Denver, Colo.). To examine the level of phosphorylation of the MLC, cells were cultured with ˜5 μCi of ^32P in 1 mL of phosphate-free DMEM. The collected cell extract was nutated with resin coupled with a macrophage myosin II antibody at 4° C. for 5 h. Resin was collected by centrifugation, and proteins bound to the resin were washed and eluted with a buffer (80° C.) containing […], 5 mM DTT, and 10 mM TrisHCl (pH 6.8). The immunoprecipitates were then analyzed by SDS-PAGE and autoradiographed. The values of RhoA activity and the MLC phosphorylation determined from untreated cells were set at 100%. […] The data represented in the figure represent the mean values of triplicate measurements, and the vertical error bar indicates standard errors.

Rac1 = Rac1 (Homo sapiens, UniProt P63000); experiment: Co-IP ESI-MS of thioguanine nucleotide disulfide adduct in T cells; assay type: cell-based; set-up: endogenous in cells; conditions: for thioguanine nucleotide-Rac1 disulfide adduct: activated T cells, FIGS. 21, 27
Method: FIG. 21. Detection of 6-TGNP adduct from A7r5 and T cells. Experimental procedures using A7r5 (A and B) and T (C and D) cells, respectively, were identical to those of the experiments described in FIG. 19 and previous studies (Tiede et al. J. Clin. Invest. 111, 1133-1145 (2003); and Poppe et al. J. Immunol. 176, 640-651 (2006)). The cell extract was incubated with a monoclonal RhoA antibody (A and B) or a Rac1 antibody (C and D) coupled with resin. Resin was collected by centrifugation (5,000×g, 10 min), which was suspended in 50% methanol:0.1% formic acid. The protein portion was separated by brief centrifugation (3,000×g for 5 min), resuspended in a buffer containing 10 mM EDTA and 5 mM phosphate (pH 7.5), digested with trypsin for 10 h, and analyzed with MS. The MS peak at 1476.6 Da represents peptide-6-TGDP adduct; TC^20LLIVFSK-6-TGDP.
FIG. 27. Detection of 8-TGNP adduct from T and A7r5 cells. […] The indicated MS peak at 1476.6 Da represents peptide-8-TGDP adduct; TC^20LLIVFSK-8-TGDP (SEQ ID NO:4). The molecular weight of the peptide-8-TGDP adduct is exactly the same as that of the peptide-6-TGDP adduct.

RhoA [2] = target: T2, RhoA (Homo sapiens, UniProt P61586); conditions: determined previously; read-out: trueKD GDP; cited from earlier work
T2 construct: made in house; host or cells: E. coli
T2 sequence (P61586 whole entry, species assumed): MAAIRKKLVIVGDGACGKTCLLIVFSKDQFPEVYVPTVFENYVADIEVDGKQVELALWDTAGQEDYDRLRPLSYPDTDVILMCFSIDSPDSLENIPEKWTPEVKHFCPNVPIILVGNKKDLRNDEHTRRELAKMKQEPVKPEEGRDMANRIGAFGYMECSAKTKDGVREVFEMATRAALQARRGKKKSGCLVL

T1 sequence (P61589 whole entry): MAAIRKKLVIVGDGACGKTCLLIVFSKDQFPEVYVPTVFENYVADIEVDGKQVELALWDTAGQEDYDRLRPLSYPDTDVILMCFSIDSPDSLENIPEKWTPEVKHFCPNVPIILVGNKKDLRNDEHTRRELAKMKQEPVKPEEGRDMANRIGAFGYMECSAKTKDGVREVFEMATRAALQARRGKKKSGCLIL

cellular expression levels of RhoA and of the MLC (RhoA [1]; presence or absence of 6-TG, FIG. 20A)	MS peak representing 6-TGNP-Rac1 adduct (Rac1; T cells, both 6-TG and NO, intensity not truly quantitative)	screen of 6-TP isomers on RhoA activity (RhoA [1]; not shown)	Structure (SMILES)	cell motility (HME-RhoC cells; 6-TG 1 μM alone, three or more consecutive days, FIG. 14A)	invasive cell motility (HME-RhoC cells; 6-TG 1 μM with DETA/NO (or GSNO) 10 μM, three days, FIG. 14A)	RhoA inactivation (RhoA [1]; 6-TG 1 μM, within 3 days, FIG. 20B)	fraction of inactive RhoA (RhoA [1]; 6-TG plus DETA/NO 10 μM, FIG. 20B)	thioguanine nucleotide-Rac1 disulfide adduct (Rac1)	invasive mobility after 8-TG followed by NO donor (HME-RhoC cells; 8-TG for a week, then DETA/NO or GSNO 10 μM every 20 or 8 h)	termination of RhoC-mediated cell invasiveness, 8-TG with redox agent versus 6-TG-redox combination (HME-RhoC cells; in conjunction with a redox agent)	screen of thiopurine analogs on invasive cell mobility (HME-RhoC cells; in the presence of NO donor DETA/NO)	decline of invasive cell mobility over 5 days of continuous treatment (HME-RhoC cells; only 8-TG 1 μM, FIG. 11) [%]	decline of invasive cell mobility within a day (HME-RhoC cells; only 8-TG 1 μM, FIG. 11) [%]	Kd (RhoA [2]) [µM]
not changed	increased	–	Nc1nc2nc[nH]c2c(=S)[nH]1 [6-TG, 6-thioguanine]	gradual but significant diminution of cell motility	complete termination of the invasive cell motility	significant portion of RhoA was inactivated	synergistically increases the fraction of inactive RhoA	has been identified	–	–	–	–	–	–
–	–	most effectively inhibits RhoA activity	Nc1nc2[nH]c(S)nc2c(=O)[nH]1 [8-TG, 2-amino-8-mercapto-1H-purin-6(9H)-one]	–	–	–	–	biologically inactive 8-TGNP-Rac1 disulfide adduct	virtually all of the invasive mobility of HME-RhoC cells was immediately terminated	much more effective than a 6-TG-redox combination	most effectively inhibits	~60	~10	–
–	–	–	Nc1nc2c(ncn2[C@@H]2O[C@H](COP(=O)(O)OP(=O)(O)O)[C@@H](O)[C@H]2O)c(=O)[nH]1 [GDP]	–	–	–	–	–	–	–	–	–	–	13
